Results as given in paper PMC12655819 (Pharmaceuticals, 2025).
Marks after values point to notes of the source that are not given here.

Assays:
[1] = Pharmacokinetics from capillary blood collected with Mitra VAMS (vMPA, vMPAG); type: in vivo, human
Method: (§1) The AUC0–4, Tmax, and Cmax parameters were calculated using the R (version 4.5.1) package software (R Core Team, 2025), supported by RStudio (version 2025.05.1+513) from Posit PBC software (Boston, MA, USA). […] The vMPA and vMPAG capillary blood levels were corrected using formulas validated in our department (partially published by Kocur et al.) and expressed as estimated capillary plasma concentrations. […] Individual PK profiles for each patient included in the study are provided in the Supplementary File (Figures S4 and S5).
Subsequently, the tip (after at least 1 h of drying) was placed in an 1.5 mL Eppendorf-type test tube (Eppendorf AG, Hamburg, Germany) containing 150 μL of pure deionized water. Next, the test tube was shaken at room temperature for 1 h using the automatic rotary vortex. Subsequently, 10 μL of IS solution and 150 μL of the precipitation mixture were added. The sample was then processed as described in Section 4.3.4. Sample processing was carried out at the Department of Drug Chemistry, Pharmaceutical and Biomedical Analysis, Medical University of Warsaw, Poland [21].
(§2) From each patient (if they consented to all sampling types), four samples were collected simultaneously at all defined time points of the dynamic PK profile (0, 0.5, 1, 2, and 4 h after drug administration). Whole blood was collected using standard venipuncture by a phlebotomist into a K3-EDTA test tube (Sarstedt, Nümbrecht, Germany). Plasma for analytical determination was obtained by centrifuging a portion of the whole blood and stored at −40 °C until assay. At the same time, 10 µL capillary blood samples were collected from a finger prick using the Mitra™ device (VAMS samples were stored in light-protected aluminum zip bags with desiccant at room temperature).

[2] = Pharmacokinetics from liquid (wet) saliva collected with Salivette (sMPA, sMPAG); type: in vivo, human
Method: as §1
The concentrations of sMPA and sMPAG in saliva were determined using a previously described LC-MS/MS method. Briefly, 100 µL of saliva was used for analysis. […] Samples were vortexed and evaporated to dryness. The dry residues were reconstituted in 100 μL of a mobile phase consisting of a 1:4 (v/v) mixture of methanol and water, both of which contained 0.1% formic acid. After double centrifugation, the samples were analyzed using a Shimadzu Ultra-Performance Liquid Chromatography (UPLC) system (Shimadzu Co., Kyoto, Japan) coupled with a triple quadrupole mass spectrometer (LCMS-8030; Simadzu Co., Kyoto, Japan). The method was linear over the concentration range of 2–500 μg/L for both sMPA and sMPAG. This part of the work was carried out with the support of the Centre of Innovative Pharmaceutical Technology, Poznan University of Medical Sciences (Poznan, Poland).
(§3) Additionally, the unstimulated saliva samples were simultaneously collected using the Salivette® device (Sarstedt, Nümbrecht, Germany) and Mitra™ 20 µL microsampling tips (Neoteryx/Trajan, Torrance, CA, USA (all saliva samples simultaneously to plasma and capillary blood sampling: 0, 0.5, 1, 2, and 4 h after drug administration). Patients had not eaten for at least 30 min before saliva collection, and their mouths were rinsed with water. The study was conducted in accordance with the Declaration of Helsinki and the International Council for Harmonization Guideline for Good Clinical Practice. The protocol was approved by the Bioethics Committee of the Children’s Memorial Health Institute, Warsaw, Poland (approval No. 15/KBE/2023, with subsequent amendments). Written informed consent was obtained from all participants and their legal guardians.

[3] = Pharmacokinetics from dried saliva collected with Mitra VAMS (vsMPA, vsMPAG); type: in vivo, human
Method: as §1
Samples were sonicated (36 °C, 30 min), vortexed (15 min), and frozen (−20 °C, 15 min). After centrifugation (10 min, 25,155× g), 350 µL of supernatant was transferred to a total recovery borosilicate vial (Finneran, Vineland, NJ, USA) and evaporated to dryness under a stream of nitrogen (40 °C) using Ultravap® Levante (Porvair, Hampshire, Great Britain). The residue was reconstituted in 150 µL of mobile phase A, filtered in a Verex™ vial, and 5 µL was injected into the LC–MS/MS system. Analyses were performed at the Department of Drug Chemistry, Pharmaceutical and Biomedical Analysis, Medical University of Warsaw, Poland.
as §3

[4] = cited from earlier work
[5] = Pharmacokinetics from plasma unbound levels in plasma ultrafiltrate (fMPA, fMPAG); type: in vivo, human; conditions: free level in plasma ultrafiltrate
Method: as §1
Next, the sample was centrifuged at 3000× g for 5 min at ambient conditions, and the supernatant was transferred into a chromatographic vial. Sample processing was performed at the Department of Drug Chemistry, Pharmaceutical and Biomedical Analysis, Medical University of Warsaw, Poland.
as §2

[6] = 0 h (pre-dose), n = 20, mean ± SD
[7] = 0.5 h post-dose, n = 20, mean ± SD
[8] = 1 h post-dose, n = 20, mean ± SD
[9] = 2 h post-dose, n = 20, mean ± SD
[10] = 4 h post-dose, n = 20, mean ± SD
[11] = normalized to MMF dose, n = 20, mean (range)
[12] = pediatric renal transplant recipients (n = 20) on MMF, mean (range)
[13] = wet saliva, pediatric renal transplant recipients (n = 20) on MMF, mean (range)
[14] = dried saliva (Mitra VAMS), pediatric renal transplant recipients (n = 20) on MMF, mean (range)

C0 concentration [1, 6]: 22481 ± 10350 ng/mL
C0.5 concentration [1, 7]: 34340 ± 14354 ng/mL
C1 concentration [1, 8]: 44.003 ± 20.520 mg/L
C2 concentration [1, 9]: 34.039 ± 12.356 mg/L
C4 concentration [1, 10]: 25.381 ± 11.908 mg/L
AUC(0–4) ([1]; corrected to estimated capillary plasma concentration, n = 20, mean (range)): 133000 ng·h/mL
Cmax ([1]; corrected to estimated capillary plasma concentration, pediatric renal transplant recipients (n = 20) on MMF, mean (range)): 47.73 (19.80–110.76) mg/L
AUC(0–4) Normalized to Drug Dose [1, 11]: 361.35 (100.49–1064.33) ^d mg × h/mL × g
Tmax [1, 12]: 1.38 (0.50–2.00) h
Cmax ([2]; wet saliva (unstimulated, Salivette), pediatric renal transplant recipients (n = 20) on MMF, 0–4 h post-dose, mean (range)): 73.74 (22.00–146.00) µg/L
C0 concentration ([2]; wet saliva, 0 h (pre-dose), n = 20, mean ± SD): 19.135 ± 12.712 ng/mL
C0.5 concentration ([2]; wet saliva, 0.5 h post-dose, n = 20, mean ± SD): 39.659 ± 26.611 ng/mL
C1 concentration ([2]; wet saliva, 1 h post-dose, n = 20, mean ± SD): 70.173 ± 44.943 µg/L
C2 concentration ([2]; wet saliva, 2 h post-dose, n = 20, mean ± SD): 39.371 ± 25.210 µg/L
C4 concentration ([2]; wet saliva, 4 h post-dose, n = 20, mean ± SD): 22.417 ± 15.097 µg/L
AUC(0–4) Normalized to Drug Dose ([2]; wet saliva, normalized to MMF dose, n = 20, mean (range)): 352.10 (119.88–857.42) ^c µg × h/mL × g
AUC(0–4) [2, 13]: 158 ng·h/mL
Tmax [2, 13]: 1.08 (0.50–2.00) h
Cmax ([3]; dried saliva (Mitra VAMS 20 µL), pediatric renal transplant recipients (n = 20) on MMF, 0–4 h post-dose, mean (range)): 70.30 (19.04–146.54) µg/L
C0 concentration ([3]; dried saliva (Mitra VAMS), 0 h (pre-dose), n = 20, mean ± SD): 17.834 ± 12.122 ng/mL
C0.5 concentration ([3]; dried saliva (Mitra VAMS), 0.5 h post-dose, n = 20, mean ± SD): 37.704 ± 24.598 ng/mL
C1 concentration ([3]; dried saliva (Mitra VAMS), 1 h post-dose, n = 20, mean ± SD): 67.422 ± 44.462 µg/L
C2 concentration ([3]; dried saliva (Mitra VAMS), 2 h post-dose, n = 20, mean ± SD): 39.258 ± 25.317 µg/L
C4 concentration ([3]; dried saliva (Mitra VAMS), 4 h post-dose, n = 20, mean ± SD): 19.762 ± 13.638 µg/L
AUC(0–4) Normalized to Drug Dose ([3]; dried saliva (Mitra VAMS), normalized to MMF dose, n = 20, mean (range)): 335.45 (115.15–902.00) ^c µg × h/mL × g
AUC(0–4) [3, 14]: 145 ng·h/mL
Tmax [3, 14]: 1.03 (0.50–2.00) h
C0 concentration [5, 6]: 3893 ± 2073 ng/mL
C0.5 concentration [5, 7]: 6264 ± 4238 ng/mL
C1 concentration [5, 8]: 8.029 ± 4.393 mg/L
C2 concentration [5, 9]: 6.889 ± 3.791 mg/L
C4 concentration [5, 10]: 4.701 ± 2.218 mg/L
AUC(0–4) Normalized to Drug Dose [5, 11]: 66.47 (19.97–195.68) ^d mg × h/mL × g
Cmax ([5]; pediatric renal transplant recipients (n = 20) on MMF (CellCept), steady state, 0–4 h post-dose, mean (range)): 8.98 (3.85–19.81) mg/L
AUC(0–4) [5, 12]: 25200 ng·h/mL
Tmax [5, 12]: 1.55 (0.50–2.00) h
SMILES: COc1c(C)c2c(c(O[C@@H]3O[C@H](C(=O)O)[C@@H](O)[C@H](O)[C@H]3O)c1C/C=C(\C)CCC(=O)O)C(=O)OC2 [MPAG, mycophenolic acid glucuronide]
increase of concentration in severe renal impairment ([4]; patients with severe renal impairment, up): 3–6 fold
time of peak plasma concentration after administration ([4]; plasma): 1 to 4 h
binding to albumin ([4]; stable transplant recipients): approximately 82%
